Results taken from patent US20240317683A1, “METHODS OF TREATING MOOD DISORDERS” (priority 2020, published 2024).
Where a name gives a salt, the structure may show the parent alone.

What was measured:
[1] = Metabolic stability in human liver microsomes (HLM); assay type: in vitro ADME; conditions: both sexes, pooled human liver microsomes, pH 7.4, NADPH
Procedure: (§1) HLM Stability. Pooled HLM from adult male and female donors (Corning 452117) were used. Microsomal incubations were carried out in multi-well plates. […] Control incubations were performed by replacing the NADPH-cofactor system with PBS. Test compounds (1 μM, final solvent concentration 1.0%) were incubated with microsomes at 37° C. with constant shaking. Six time points over 60 minutes were analyzed, with 60 μL aliquots of the reaction mixture being drawn at each time point.

[2] = Metabolic stability in rat liver microsomes (RLM); assay type: in vitro ADME; conditions: both sexes, pooled rat liver microsomes, pH 7.4, NADPH
Procedure: as §1, with “RLM” for “HLM”, “(Xenotech R1000)” for “(Corning 452117)”

[3] = Pharmacokinetics in mice, plasma; assay type: in vivo, C57BL/6 mice; conditions: for F: mouse, based on plasma AUC0-last
Procedure: (§2) Animals. Male C57BL/6 mice, aged 8-12 weeks, were used in these studies. Four mice were housed in each cage. Temperature and humidity were maintained at 22±3° C. and 30-70%, respectively, and illumination was controlled to give a 12 h light and 12 h dark cycle. Temperature and humidity were recorded by an auto-controlled data logger system. All animals were provided laboratory rodent diet. Reverse osmosis water treated with ultraviolet light was provided ad libitum. Animals were randomly assigned to treatment groups.
(§3) Drugs. Compounds 4 and 5 were prepared as described above. All other compounds were commercially obtained. Test compounds were used as the hydrogen fumarate (1 and 2) or hydrochloride (3, 4, and 5) salts and were dissolved in a vehicle consisting of normal saline. They were then administered intravenously (IV) via the tail vein, subcutaneously (SC), or orally (PO) via gavage at a dose of 1 or 10 mg/kg (calculated based on the free base) and at a volume of 5 ml/kg body weight.
(§4) Sample Collection and Bioanalysis. Blood samples (approximately 60 μL) were collected under light isoflurane anesthesia (Surgivet®) from the retro orbital plexus at 0.08, 0.25, 0.5, 1, 2, 4, 8, and 24 h (4 animals per time point). Immediately after blood collection, plasma was harvested by centrifugation at 4,000 rpm for 10 min at 4° C. and samples were stored at −70±10° C. until bioanalysis. Following blood collection, animals were immediately sacrificed, the abdominal vena-cava was cut open, and the whole body was perfused from the heart using 10 mL of normal saline, and brain samples were collected from all animals. After isolation, brain samples were rinsed three times in ice-cold normal saline (for 5-10 seconds/rinse using ˜5-10 mL normal saline in disposable petri dish for each rinse) and dried on blotting paper. Brain samples were homogenized using ice-cold phosphate-buffered saline (pH 7.4). Total homogenate volume was three times the tissue weight. All homogenates were stored at −70±10° C. until bioanalysis. For bioanalysis, 25 μL aliquots of plasma/brain study samples or spiked plasma/brain calibration standards were added to individual pre-labeled micro-centrifuge tubes followed by 100 μL of an internal standard solution (glipizide, 500 ng/ml in acetonitrile) except for blanks, where 100 μL of acetonitrile was added. Samples were vortexed for 5 minutes and then centrifuged for 10 minutes at 4,000 rpm at 4° C. Following centrifugation, 100 μL of each clear supernatant was transferred to a 96 well plate and analyzed with a fit-for-purpose LC-MS/MS method, with authentic samples of each analyte used for calibration and identification.
(§5) Data Analysis. Pharmacokinetic parameters were estimated using the non-compartmental analysis tool of Phoenix® WinNonlin software (Ver 8.0).

[4] = Pharmacokinetics in mice, brain; assay type: in vivo, C57BL/6 mice; conditions: for half-life / Cmax / Tmax: male, C57BL/6; for half-life / Cmax / Tmax / AUC0-last: mouse brain; for F: mouse, based on brain AUC0-last
Procedure: as §2, §3, §4, §5

5-HT2A = 5-HT2A (Homo sapiens (Human), UniProt P28223); assay: FLIPR Ca2+ flux agonist assay, 5-HT2A; assay type: cell-based; conditions: for 5-HT2A % Act @ Max Dose / EC50: HEK293
Procedure: A solution of 250 mM probenecid in 1 mL FLIPR assay buffer was prepared fresh. This was combined with a fluorescent dye (Fluo-4 Direct™) to make a final assay concentration of 2.5 mM. […] The fluorescent dye was then added to the assay plate along with assay buffer to a final volume of 40 μL. The cell plate was incubated for 50 min at 37° C. and 5% CO2 and placed into the FLIPR Tetra along with the compound plate. 10 μL of references and compounds were then transferred from the compound plate into the cell plate and the fluorescent signal was read.

[5] = target: serotonin transporter (SERT) (Homo sapiens (Human), UniProt P31645); assay: SERT fluorescent substrate uptake inhibition in transfected HEK293 cells; assay type: cell-based; conditions: HEK293 cells expressing SERT
Procedure: SERT Uptake Inhibition. The ability of test compounds to block monoamine uptake by SERT was determined using the Neurotransmitter Transporter Uptake Assay Kit manufactured by Molecular Devices (Cat #R8173). Briefly, stably transfected HEK293 cells expressing SERT were grown and plated into 384-well plates at a concentration of 20,000 cells per well. Plates were then incubated for 16-20 h at 37° C. and 5% CO2. The medium was then aspirated and replaced with 25 μL of assay buffer (20 mM HEPES in HBSS, containing 0.1% BSA) containing the test compounds at the appropriate concentrations. Plates were then centrifuged at 300 rpm for 15 s and then incubated at 37° C. for 30 minutes. At this time, 25 μL of the proprietary fluorescent dye solution was added, the plates were incubated at 37°° C. for 60 minutes, and then fluorescence was quantified on a plate reader (excitation wavelength =440 nm, emission wavelength=520 nm). The proprietary dye solution contains a mixture of 1) a fluorescent dye (dye 1) that mimics the endogenous substrate of SERT and is thereby actively transported to the intracellular compartment in the absence of an inhibitor and 2) a masking dye that inhibits the fluorescence of dye 1 in the extracellular compartment. Therefore, the overall fluorescence of the system increases as the fluorescent dye is transported into the cells.

[6] = male, C57BL/6, mouse plasma, IV, 10 mg/kg
[7] = male, C57BL/6, mouse plasma, SC, 1 mg/kg
[8] = male, C57BL/6, mouse plasma, SC, 10 mg/kg
[9] = male, C57BL/6, mouse plasma, SC, 10 mg/kg, read-out: Cmax
[10] = male, C57BL/6, mouse plasma, oral, 10 mg/kg

CCN(C)CCc1c[nH]c2ccc(F)cc12 [Compound 4, N-ethyl-2-(5-fluoro-1H-indol-3-yl)-N-methylethan-1-amine hydrochloride]
half-life at 1 μM [1]: 47.9 min
microsomal CLint at 1 μM [1]: 28.9 µL/min/mg
half-life at 1 μM [2]: 6.1 min
microsomal CLint at 1 μM [2]: 229 µL/min/mg
AUC(0-t) [3, 6]: 1790 ng·h/mL
clearance [3, 6]: 92.8 mL/min/kg
half-life [3, 6]: 51.6 min
Cmax ([3]; male, C57BL/6, mouse plasma, IV, 10 mg/kg, read-out: Cmax (C0 back-extrapolated to t = 0)): 2910 ng/mL
AUC(0-t) [3, 7]: 57.5 ng·h/mL
Tmax [3, 7]: 4.8 min
half-life [3, 7]: 27 min
Cmax ([3]; male, C57BL/6, mouse plasma, SC, 1 mg/kg, read-out: Cmax): 83.2 ng/mL
AUC(0-t) [3, 8]: 1170 ng·h/mL
Tmax [3, 8]: 30 min
half-life [3, 8]: 54 min
Cmax [3, 9]: 631 ng/mL
AUC(0-t) [3, 10]: 623 ng·h/mL
Tmax [3, 10]: 15 min
half-life [3, 10]: 80.4 min
Cmax ([3]; male, C57BL/6, mouse plasma, oral, 10 mg/kg, read-out: Cmax): 272 ng/mL
F ([3]; SC, 1 mg/kg): 32%
F ([3]; SC, 10 mg/kg): 65%
F ([3]; oral, 10 mg/kg): 35%
half-life ([4]; IV, 10 mg/kg): 56.4 min
Cmax ([4]; IV, 10 mg/kg, read-out: Cmax (C0 back-extrapolated to t = 0)): 7980 ng/g
Tmax ([4]; SC, 1 mg/kg): 15 min
half-life ([4]; SC, 1 mg/kg): 22.2 min
Cmax ([4]; SC, 1 mg/kg, read-out: Cmax): 461 ng/g
Tmax ([4]; SC, 10 mg/kg): 60 min
half-life ([4]; SC, 10 mg/kg): 49.2 min
Cmax ([4]; SC, 10 mg/kg, read-out: Cmax): 3510 ng/g
Tmax ([4]; oral, 10 mg/kg): 15 min
half-life ([4]; oral, 10 mg/kg): 79.2 min
Cmax ([4]; oral, 10 mg/kg, read-out: Cmax): 1400 ng/g
AUC0-last ([4]; IV, 10 mg/kg): 10,471.19 h*ng/g
AUC0-last ([4]; SC, 1 mg/kg): 320.97 ng·h/g
AUC0-last ([4]; SC, 10 mg/kg): 6,672.16 h*ng/g
AUC0-last ([4]; oral, 10 mg/kg): 3,835.86 h*ng/g
F ([4]; SC, 1 mg/kg): 31%
F ([4]; SC, 10 mg/kg): 64%
F ([4]; oral, 10 mg/kg): 37%
selectivity for 5-HT2A over 5-HT2B (in words) (5-HT2A): highly selective
5-HT2A % Act @ Max Dose (5-HT2A): 87.6%
EC50 (5-HT2A): 20.6 nM
IC50 [5]: 419 nM
SERT % Inhibition @ Max Dose [5]: 77.45%

CCN(C)CCc1c[nH]c2cccc(O)c12 [Compound 6]
half-life at 1 μM [1]: > 145 min
microsomal CLint at 1 μM [1]: < 9.6 µL/min/mg
half-life at 1 μM [2]: 50.1 min
microsomal CLint at 1 μM [2]: 27.7 µL/min/mg
AUC(0-t) [3, 8]: 1410 ng·h/mL
Tmax [3, 8]: 4.8 min
half-life [3, 8]: 66 min
Cmax [3, 9]: 1160 ng/mL
Tmax ([4]; SC, 10 mg/kg): 30 min
half-life ([4]; SC, 10 mg/kg): 64.2 min
Cmax ([4]; SC, 10 mg/kg, read-out: Cmax): 2920 ng/g
AUC0-last ([4]; SC, 10 mg/kg): 3,549.18 h*ng/g
5-HT2A % Act @ Max Dose (5-HT2A): 103.0%
EC50 (5-HT2A): 15.1 nM
IC50 [5]: 3270 nM
SERT % Inhibition @ Max Dose [5]: 84.02%
